Laboratory results taken from a compilation of properties of binary mixtures (doi:10.1016/j.molliq.2016.02.091).

Experiment: xn = mol fraction of the nth substance listed
Details: 101 kPa

CCC(=O)O + CC[n+]1ccn(C)c1.COS(=O)(=O)[O-]
x1 = 1
Details	speed of sound [m/s]
303.15 K	1129
308.15 K	1110

CC[n+]1ccn(C)c1.COS(=O)(=O)[O-] + CC(=O)O
speed of sound [m/s]
Details	x2 = 0	x2 = 0.1669	x2 = 0.3003	x2 = 0.5004	x2 = 0.6432	x2 = 0.7503	x2 = 0.8336	x2 = 0.9001	x2 = 0.9546	x2 = 0.9783
298.15 K	1758	1713	1665	1593	1501	1419	–	1274	1202	–
303.15 K	1745	1702	1650	1580	–	1403	–	1258	–	1151
308.15 K	1734	–	1641	1568	1473	1391	1318	1246	1172	1136
313.15 K	1723	1681	1624	–	1456	1371	1298	1225	1152	1116

CC[n+]1ccn(C)c1.COS(=O)(=O)[O-] + CCC(=O)O
speed of sound [m/s]
Details	x2 = 0	x2 = 0.1332	x2 = 0.2478	x2 = 0.4345	x2 = 0.5804	x2 = 0.6975	x2 = 0.7935	x2 = 0.8737	x2 = 0.9417	x2 = 0.9719
298.15 K	1758	1715	1669	1590	1509	1430	1356	1285	1215	–
303.15 K	1745	1701	1656	1576	1493	1413	1339	1267	1197	1162
308.15 K	1734	1689	1642	1563	1478	1396	1321	1249	1178	1143
313.15 K	1723	1678	1630	1549	1462	1380	1304	1231	1160	–

CC(=O)O + CC[n+]1ccn(C)c1.COS(=O)(=O)[O-]
x1 = 1
Details	speed of sound [m/s]
298.15 K	1133
303.15 K	1117
308.15 K	1102
313.15 K	1082
